What was measured:
[1] = test system: mammary carcinogenesis induced by DMBA; assay: DMBA-induced mammary carcinogenesis, Morinda citrifolia/MSM combination (Example Five); format: in vivo, female SD rats
Excerpt: In research supporting the present invention, the cancer preventive effects of Morinda citrifolia, MSM, and their combination at the initiation stage of multiple stage chemical carcinogenesis was investigated on a mammary breast carcinogenic animal model induced by DMBA in female SD rats. In the experiment, seventy-five female SD rats were divided into five groups: age-matched control, DMBA, 5% Morinda citrifolia+DMBA, 5% MSM+DMBA, and 5% Morinda citrifolia+5% MSM+DMBA groups. The experiment was started at the 35th postnatal day with water being given to the age-matched control group and the DMBA group, while 5% Morinda citrifolia, 5% MSM, and 5% Morinda citrifolia+5% MSM was supplied to the Morinda citrifolia, MSM, and Morinda citrifolia+MSM+DMBA groups. DMBA (25 mg/kg) was administered by mouth at the 50th postnatal day in the DMBA, Morinda citrifolia+DMBA, MSM+DMBA, and Morinda citrifolia+MSM+DMBA groups. Morinda citrifolia, MSM, Morinda citrifolia+MSM were continuously supplied for an additional 90 days after DMBA administration. All animals were sacrificed at the 9th month after DMBA treatment to examine the pathological changes in the mammary glands by light microscopy. […] Therefore, this synergistic combination regimen may contribute to human breast cancer prevention at the initiation stage of carcinogenesis. […]

[2] = test system: mammary gland tumorigenesis induced by estrogen; assay: E2-induced mammary tumors (Example Four); format: in vivo, female ACI rats
Excerpt: FIG. 2 is a graphical representation of the preventative effects of Morinda citrifolia-containing compounds on mammary gland tumorigenesis induced by estrogen in female ACI rats in accordance with the present invention.
Sixty five-week old female rats were divided into four groups of fifteen rats each and placed on regular diets. Another eight female rats served as age-matched controls. One group of experimental rats was given 5% placebo in drinking water, the second experimental group was given 5% Morinda citrifolia juice in drinking water, the third experimental group was given 5% Methylsulfonylmethane (“MSM”) in drinking water, and the fourth experimental group was given a combination of 5% Morinda citrifolia juice and 5% MSM in drinking water. Two weeks later, all animals were implanted subcutaneously with a 25 mg pellet containing 22.5 mg of 17β-estradiol (E2) mixed with 2.5 mg cholesterol. Each experimental group was provided with its respective formulation for ninety days following estrogen (E2) implantation. The age-matched control animals received a 25 mg cholesterol pellet implant.
All rats with an E2 implant in the placebo group had mammary gland tumors. One hundred percent (100%) of the rats in this group had three to seven tumors. Seventy-one percent (71%) of the rats in the Morinda citrifolia group had two to five tumors. Fifty-seven percent (57%) of the rats in the MSM group had one to four tumors. Forty-three percent (43%) of the rats in the combination group had zero to three tumors.
The average tumor area in the placebo group, Morinda citrifolia group, MSM group, and combination group at 180 days after E2 implantation were 17, 12, 10 and 6 mm^2, respectively. The survival rates of the control, placebo, Morinda citrifolia, MSM and combination groups one hundred and sixty days after E2 implantation were 100%, 0%, 47%, 73%, and 87%, respectively. The survival rates of each group at one hundred eighty days after E2 implantation was 100%, 0%, 0%, 20% and 60%, respectively. At two hundred days, the survival rates of each group were 100%, 0%, 0%, 0%, and 27%, respectively.

[3] = 5% in drinking water from two weeks before to ninety days after E2 implantation

Structure (SMILES): CS(C)(=O)=O [MSM, methylsulfonylmethane]
- mild hyperplasia ([1]; 5% each, sacrificed 9th month after DMBA): 75%
- benign tumor or carcinoma in mammary glands by light microscopy ([1]; 5% from 35th postnatal day until 90 days after DMBA 25 mg/kg by mouth, sacrificed 9th month): No benign tumor or carcinoma was observed
- number of tumors per rat [2, 3]: one to four
- percent of the rats with mammary tumors [2, 3]: 57%
- body weight ([2]; 5% in drinking water, E2 implant): slight body weight loss
- average tumor area ([2]; 180 days after E2 implantation): 10 mm^2
- survival rate ([2]; one hundred and sixty days after E2 implantation): 73%
- survival rate ([2]; one hundred eighty days after E2 implantation): 20%
- survival rate ([2]; two hundred days after E2 implantation): 0%

— patent publication US20070259060A1, “Formulations and Methods for Treating Breast Cancer with Morinda Citrifolia and Methylsulfonymethane” (priority 2003, published 2007)
